From paper PMC7356104, “Oral Administration of Artemisone for the Treatment of Schistosomiasis: Formulation Challenges and In Vivo Efficacy” (Pharmaceutics, 2020)
In brackets after ≈: the same amount, converted by molar mass. Where two headings read alike, the source gives them in different places. Each block holds one molecule with its values, some of them ahead of it.

Assays:
S. mansoni = settings: cited from earlier work
[1] = parameters: method as in PMID 21596127; settings: oral Pheroid technology formulation, mice; cited from earlier work
[2] = parameters: method as in earlier work; settings: cited from earlier work
[3] = Storage stability of artemisone in SMEDDS and PBS at 30 °C (HPLC); format: physicochemical; settings: 80 µg/mL in PBS pH 6.5, 30 °C, light exclusion
Method: (§1) Artemisone was quantified with high-performance liquid chromatography (HPLC) (Agilent/HP 1100 HPLC series, high-pressure pump, degasser, UV-VIS detector and autosampler, now Agilent Technologies, Inc., Santa Clara, CA, USA), using a method we developed and validated according to the ICH guidelines, over a range of 10–500 µg artemisone/mL (Table 1).
Artemisone (50 mg/g) was dissolved in SMEDDS-100. For SMEDDS-50-ART and SMEDDS-20-ART, PBS was added to the drug-loaded formulation to give the microemulsions, containing 25 mg/g and 10 mg/g artemisone, respectively. A solution of 80 µg/mL artemisone in PBS pH 6.5 Ph.Eur. was prepared and used as control, the pH found for SMEDDS-50 and SMEDDS-20 also being around 6.5. Triplicates of all three preparations were stored in glass vials with Teflon sealed lids at 30 °C under light exclusion. Samples were taken after 14, 28, 42, 56, and 92 days and analyzed via HPLC to monitor drug stability.

[4] = tested on: P. falciparum NF54 parasites; test: In vitro efficacy on P. falciparum in culture; format: cell-based, Plasmodium falciparum; settings: 48 h
Method: P. falciparum NF54 parasites were cultivated at 4% hematocrit in RPMI 1640 medium, 0.5% Albumax II (Invitrogen, Carlsbad, CA, USA), 0.25% sodium bicarbonate, and 0.1 mg/mL gentamicin. 200 µL of parasite suspension at 1% parasitemia were incubated in a Nunc microplate, in 96 flat-bottom wells, at 37 °C, in an atmosphere of 5% oxygen, 5% carbon dioxide and 90% nitrogen. Drug dilutions were added in triplicates in 25 µL. After 48 h P. falciparum parasitaemias were estimated by microscopic determination of the percent of parasitized erythrocytes in a total of 5000 erythrocytes, using Giemsa stained blood smears that were prepared from triplicate individual wells.

[5] = Solubility of artemisone in organic solvents, excipients and SMEDDS (HPLC); format: physicochemical; settings: thermodynamic from solid
Method: The solubility of artemisone in organic solvents and lipid excipients was determined according to the following procedure: 200 mg artemisone/1.0 mL excipient were placed on an orbital mixing heating plate (Torrey Pines Scientific, Carlsbad, CA, USA) at 25 °C for 24 h under light exclusion. Samples were centrifuged and the supernatant filtered and diluted with ethanol as necessary before HPLC analysis. Samples were prepared in triplicates.
as §1

[6] = H2O; cited from earlier work
[7] = similar procedure (single oral dose)

Compound: CO[C@H]1O[C@@H]2O[C@@]3(C)CC[C@H]4[C@H](C)CC[C@@H]([C@H]1C)[C@@]24OO3 [artemether]
reduction of worm load (S. mansoni; [7]): more than 90%

Compound: C[C@H]1[C@H](N2CCSCC2)O[C@@H]2O[C@@]3(C)CC[C@H]4[C@H](C)CC[C@@H]1[C@@]24OO3 [artemiside]
reduction of worm load (S. mansoni; [7]): more than 90%

artemisone recovered after three months [3]: 51.5 ± 0.4%
solubility at 24 h ([5]; oil or lipid, in Polysorb ID 46, 25 °C): 55 mg/mL (≈ 137 mM)
solubility at 24 h ([5]; oil or lipid, in medium chain mono- and diglycerides (Capmul MCM), 25 °C): 62.5 mg/mL (≈ 156 mM)
solubility at 24 h ([5]; oil or lipid, in medium chain triglycerides (MCT), 25 °C): 22.5 mg/mL (≈ 56 mM)
solubility at 24 h ([5]; organic solvent or mixture, in DMF, 25 °C): > 100 mg/mL
solubility at 24 h ([5]; organic solvent or mixture, in DMSO, 25 °C): > 100 mg/mL
solubility at 24 h ([5]; organic solvent or mixture, in acetone, 25 °C): > 100 mg/mL
solubility at 24 h ([5]; organic solvent or mixture, in dichloromethane, 25 °C): > 100 mg/mL
solubility at 24 h ([5]; organic solvent or mixture, in ethanol, 25 °C): 30 mg/mL (≈ 74.7 mM)
solubility at 24 h ([5]; organic solvent or mixture, in hexane, 25 °C): 0.8 mg/mL (≈ 1.99 mM)
solubility at 24 h ([5]; organic solvent or mixture, in methanol, 25 °C): 50 mg/mL (≈ 125 mM)
solubility at 24 h ([5]; organic solvent or mixture, in propylene glycol, 25 °C): 8.5 mg/mL (≈ 21.2 mM)
Compound: C[C@H]1[C@H](N2CCS(=O)(=O)CC2)O[C@@H]2O[C@@]3(C)CC[C@H]4[C@H](C)CC[C@@H]1[C@@]24OO3 [artemisone, 4-[(1R,4S,5R,8S,9R,10R,12R,13R)-1,5,9-trimethyl-11,14,15,16-tetraoxatetracyclo-hexadecan-10-yl]-1,4-thiazinane1,1-dioxide]
higher absorption of artemisone compared to an aqueous vehicle containing 10% DMSO [1]: 5.57 fold
reduction of worm load (S. mansoni; [7]): more than 90%
degradation in aqueous medium ([2]; pH 3): complete degradation was observed within one week
intact compound remained after one month ([2]; pH 5): 20%
intact compound remained after one month ([2]; pH 7.4): 75%
concentration at which parasitaemia was completely blocked [4]: below 11 ng/mL
ED50 ([4]; parasitaemia by Giemsa smears): 1 to 2 ng/mL
aqueous solubility [6]: 0.089 mg/mL (≈ 0.222 mM)

Compound: C[C@H]1[C@H](OC(=O)CCC(=O)O)O[C@@H]2O[C@@]3(C)CC[C@H]4[C@H](C)CC[C@@H]1[C@@]24OO3 [artesunate]
reduction of worm load (S. mansoni; single oral dose 400 mg/kg in 3% ethanol and 7% Tween 80, 21 days post-infection): 66%
